Test results from patent US10106577B2, “Agonists of neurotrophin receptors and their use as medicaments” (BIONURE FARMA, S.L., priority 2010, dated 2018).

Key:
[1] = tested on: NGF-receptors (TrkA and p75) on PC12 cells; assay: Cytometry binding assay, competition NGF/G79-FITC in PC12; conditions: G79-FITC 100 ng/ml; NGF 0-10-20-50-100 ng/ml
Description: (§1) In order to assess the binding of G79 to the TrkA (PC12 cells) and TrkB receptors (SH-SY5Y), we performed competitive binding assays by flow cytometry. In order to assess the binding competition between p75 and TrkA, PC12 cells expressing both TrkA and p75 receptors were cultivated in normal growth medium. After detaching cells by trypsin solution, 200,000 cells/well were added to tubes for the following incubations. One tube contains control untreated cells. In the other tubes, cells were pre-incubated for 45 minutes with different concentrations of NGF (0-10-20-50-100 ng/ml), that can directly bind both TrkA and p75 receptors, blocking the possible binding of G79 if it competes for the same receptors. Then, without washing the cells, G79 conjugated with FITC fluorescence (100 ng/ml) was added and so incubated the cells for 1 hour. Samples were read in a cytometer (FCAScan).
(§2) To detect the binding separately on both receptors, a prior incubation of cells (before NGF incubation) with blocking antibodies was made. The cells were preincubated for 1 hour with blocking antibody anti-p75 (1:100; Chemicon Int.), to detect the binding on TrkA, or blocking antibody anti-TrkA (1:200; AbCam) to detect the binding on p75. […] All the results are expressed as mean channel fluorescence (MCF), which is a measure of the cell surface fluorescence produced by G79-FITC binding.

[2] = tested on: TrkB and p75 on SH-SY5Y cells; assay: Cytometry binding assay, competition BDNF/G79-FITC in SH-SY5Y; parameters: species or system human; conditions: growing concentrations of BDNF
Description: as §1, §2

TNFα = assay: Neuroinflammation in vitro model, organotypic cerebellar culture challenged with LPS, ELISA; format: cell-based, mice; conditions: G79 100 ng/ml pre-treatment; LPS 15 μg/ml
Description: (§3) Neonates mice (day 8 after birth (P8)) were decapitated after anaesthetic IP injection and whole brains were removed aseptically. Cerebellum was separated from the rest of the brain and placed on a metal vibratome plate. Once the cerebellum was attached to the surface of the plate, 400 μm sagittal sections were cut using the vibratome. The slices were then transferred with a plastic Pasteur pipette to a cell culture plate containing an organotypic culture medium (5% CO2 in 50% basal medium with Earle's salt, 25% Hank's buffered salt solution, 25% inactivated horse serum, 5 mg/ml glucose, 0.25 mM L-glutamine and 25 μg/ml penicillin/streptomycin). After separating and isolating each slice, the cerebellar slices were then transferred to 6-well plates (3 slices for each well) containing a 30 mm culture plate insert with 0.4 μm pores (Millipore) and 1 ml full culture medium, pre-conditioned by incubation for at least 2 hours at 37° C., and 5% CO2 was added into each well below the insert. The six-well plates were kept at 37° C. and under 5% CO2, and half the medium was replaced every 2 days. All the experiments were performed after 1 week of culture in such conditions.
(§4) After one week of organotypic cerebellum culture, the medium of each well was replaced with fresh medium and G79 (100 ng/ml) or placebo (physiologic solution) was added to the wells and kept in incubation for 1 hour. […]

IL-1β = assay: as above; format: cell-based, mice; conditions: G79 100 ng/ml pre-treatment; LPS 15 μg/ml
Description: as §3, §4

JNK = assay: Luminex signalling assay in SH-SY5Y; format: cell-based, human; conditions: G79 100 ng/ml and 20 μg/ml, BDNF 20 ng/ml; 30 min, 1 h, 2 h, 6 h
Description: (§5) The human neuroblastoma cell line SH-SY5Y was used to perform Luminex signalling assays using the 10-Plex MAPK/SAPK Signaling Kit-Phosphoprotein (Millipore). This cell line expresses the TrkB receptor and the MAPK/SAPK signalling pathway is typically activated by the tyrosinkinase receptors. The phosphoprotein antibodies included into the kit are the following: ERK/MAP kinase (Thr185/Tyr187); STAT-1 (Tyr701); JNK (Thr183/Tyr185); MEK-1 (Ser212); ATF-2 (Thr69/71); p53 (Ser15); HSP27 (Ser78); c-Jun (Ser73); p38 (Thr180/Tyr182), p70 S6 kinase (Thr412); IkBα (Ser32) (purchased from Millipore).
(§6) The cells were propagated and then seeded into 24-well plates (30.000 cell/well). After 24 hours, the cells were treated with two different concentrations of NGF-receptor agonist G79: 100 ng/ml and 20 μg/ml. After adding G79 into the medium, the cells were collected in the lysis buffer of the kit at the following time points: 30 min, 1 h, 2 h, and 6 h. The assay was performed in this way to assess both time and dose effects comparing the treated samples with the untreated cells used as negative controls (unstimulated SH-SY5Y cells). BDNF was used as positive control at the concentration 20 ng/ml, which is the best working concentration known in literature. In the Luminex plate, each sample was added into a well in duplicate. After adding all the samples, the specific positive and negative controls of phosphorilation, included in the Luminex kit, were added. The assay buffer was also added in duplicate, as a background controls.
(§7) In the circles are the activated factors, while in the grey circles are the tested factors. Its effects of the SY-SY5Y cell line in the phosphorilation of several pathways were assessed using xMAP assay from Luminex. […] The levels of activation are expressed as Median Fluorescence Intensity (MFI).

ATF-2 = assay: Luminex signalling assay in SH-SY5Y; format: cell-based, human; conditions: G79 100 ng/ml and 20 μg/ml, BDNF 20 ng/ml; 30 min, 1 h, 2 h, 6 h
Description: as §5, §6, §7

STAT-1 = assay: Luminex signalling assay in SH-SY5Y; format: cell-based, human; conditions: G79 100 ng/ml and 20 μg/ml, BDNF 20 ng/ml; 30 min, 1 h, 2 h, 6 h
Description: as §5, §6, §7

HSP-27 = assay: Luminex signalling assay in SH-SY5Y; format: cell-based, human; conditions: G79 100 ng/ml and 20 μg/ml, BDNF 20 ng/ml; 30 min, 1 h, 2 h, 6 h
Description: as §5, §6, §7

`CC(C)CN(CC(=O)N(CCCN1CCCC1=O)CC(N)=O)C(=O)CNCCc1ccccc1F` [Compound G79, [N-(2-(2′-Fluorophenyl)ethyl)glycyl]-[N-(2-methylpropyl)glycyl]-N-[3-(2′-oxopyrrolidinyl)propyl]glycinamide] was tested, and the “competition with NGF for binding (MCF of G79-FITC)” value [1] was “competes for the binding on the same NGF-receptors”, the “competition with BDNF for binding (MCF of G79-FITC)” value [2] was “competes with BDNF to one of its receptors” and the “production of TNFα compared to placebo” value (TNFα) was “reduced at 6 and 12 hours”. For the same compound, the “release of IL-1β” value (IL-1β) was “did not affect the release of IL-1β”, the “JNK phospho-activation (MFI) compared to unstimulated control” value (JNK) was “significantly activated at 6 h after G79 treatment (both at 20 μg/ml and 100 ng/ml)” and the “ATF-2 phospho-activation (MFI) compared to unstimulated control” value (ATF-2) was “significantly activated at 6 h after G79 treatment (20 μg/ml)”. For the same compound, the “STAT-1 phospho-activation (MFI) compared to unstimulated control” value (STAT-1) was “significantly activated at 6 h after G79 treatment (20 μg/ml)” and the “HSP-27 phospho-activation (MFI) compared to unstimulated control” value (HSP-27) was “significantly activated at 1 h after G79 treatment (both at 20 μg/ml and 100 ng/ml)”.
